# Read-outs that look alike come from different tables or passages of the source.
# How the values were obtained:
# [1] = target: T1, interaction between GMPPNP-bound recombinant K-Ras4B G12C mutant protein and cRAF RAS-binding domain (cRAF-RBD) (Homo sapiens, UniProt P01116, G12C); test: Inhibitory activity on interaction between KRAS G12C and cRAF (Alpha technology); details: Table 2-1
# T1 construct: His-tag (N)
# In short: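 His-tagged K-Ras4B G12C (aa 1-169), GMPPNP-loaded, preincubated with compound 1 h at 25° C in pH 7.5 Tris buffer with MgCl2, TCEP, Tween 20. cRAF-RBD (aa 50-132) and Alpha reagents then added for 1.5 h; Alpha signal normalised to DMSO (0%) and GDP-bound KRAS (100%); IC50 from dose titration.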
# [2] = tested on: MIA PaCa-2 cells; test: Growth inhibition activity on KRAS-G12C mutant cell line (CellTiter-Glo 3D); type: cell-based, human; details: Homo sapiens, MIA PaCa-2, 72 h, MIA PaCa-2, 3-day culture with compound; Table 3-1
# In short: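 MIA PaCa-2 cells in RPMI1640 with 10% FBS, U-bottom wells, cultured 1 day before compound (0.2% DMSO final), then 3 days at 37 °C, 5% CO2. Viability by CellTiter-Glo 3D luminescence; growth inhibition versus untreated wells gives IC50 (nM).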
# [3] = GMPPNP-bound KRAS G12C incubated with compound 25° C. 1 hour, read-out: IC50
# [4] = IC50, GMPPNP-bound KRAS G12C incubated with compound 25° C. 1 hour
# T1 sequence (P01116 with tags, fused parts or gaps isoform P01116-2 G12C): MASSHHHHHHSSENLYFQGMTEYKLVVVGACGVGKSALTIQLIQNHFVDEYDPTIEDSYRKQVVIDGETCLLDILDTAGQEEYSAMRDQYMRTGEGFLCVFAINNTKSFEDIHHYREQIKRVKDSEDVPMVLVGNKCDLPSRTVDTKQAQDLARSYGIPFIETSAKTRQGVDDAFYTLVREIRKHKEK
Compound,"IC50 [1, 3] [nM]",IC50 [2] [nM],"IC50 [1, 4] [nM]"
Cc1nc2c3c(c(C(F)(F)F)cc2n1C)-c1cccn2c(C(=O)c4cc(F)c(NC(=O)/C=C/CN[C@@H]5COC[C@H]5O)c(F)c4)cc(c12)CCN3C [Example 137],33.5,14.9,
"CN1CCc2cc(C(=O)c3cc(F)c(NC(=O)C=CCNC4COCC4O)c(F)c3)n3cccc(c23)-c2c(C(F)(F)F)cc3c(ncn3C)c21 [Example 138, (E)-N-(4-(9,12-dimethyl-7-(trifluoromethyl)-9,12,13,14-tetrahydro-imidazo[4″,5″:5′,6′]benzo-[1′,2′:2,3]azocino[4,5,6-hi]indolizine-2-carbonyl)-2,6-difluorophenyl)-4-(((3R,4S)-4-hydroxytetra-hydrofuran-3-yl)amino)-but-2-enamide]",47.2,30.8,
"Cc1cc2c(nc(C)n2C)c2c1-c1cccc3c(C(=O)c4cc(F)c(NC(=O)/C=C/CN5CC[C@H]5C(C)(C)O)c(F)c4)cn(c13)CCN2C [Example 139, (S,E)-N-(2,6-difluoro-4-(6,8,9,11-tetramethyl-8,11,12,13-tetrahydro-imidazo[4″,5″:5′,6′]benzo-[1′,2′:5,6][1,4]diazocino-[7,8,1-hi]indole-2-carbon-yl)phenyl)-4-(2-(2-hydroxypropan-2-yl)-azetidin-1-yl)but-2-en-amide]",,57.9,59
"Cc1cc2c(nc(C)n2C)c2c1-c1cccc3c(C(=O)c4cc(F)c(NC(=O)/C=C/CN[C@H]5[C@@H]6COC[C@@H]65)c(F)c4)cn(c13)CCN2C [Example 143, (E)-4-(((1R,5S,6r)-3-oxa-bicyclo[3.1.0]hexan-6-yl)amino)-N-(2,6-difluoro-4-(6,8,9,11-tetramethyl-8,11,12,13-tetrahydro-imidazo[4″,5″:5′,6′]benzo-[1′,2′:5,6][1,4]diazocino-[7,8,1-hi]indole-2-carbon-yl)phenyl)but-2-enamide]",,47.7,17.8
"Cc1c2cc(C(F)(F)F)c3c(c2nn1C)N(C)CCc1cc(C(=O)c2cc(F)c(NC(=O)/C=C/CNC4(C)COC4)c(F)c2)n2cccc-3c12 [Example 146, (E)-N-(2,6-difluoro-4-(9,10,12-trimethyl-7-(trifluoromethyl)-10,12,13,14-tetrahydroindolizino[8′,1′:4,5,6]azocino[3,2-g]indazole-2-carbonyl)phenyl)-4-((3-methyloxetan-3-yl)amino)but-2-enamide]",20.4,19.6,
"Cn1cnc2c3c(c(C(F)(F)F)cc21)-c1cccn2c(C(=O)c4cc(F)c(NC(=O)/C=C/CN[C@H]5[C@@H]6COC[C@@H]65)c(F)c4)cc(c12)CCO3 [Example 147, (E)-4-(((1R,5S,6r)-3-oxa-bicyclo[3.1.0]hexan-6-yl)amino)-N-(2,6-difluoro-4-(9-methyl-7-(trifluoro-methyl)-13,14-dihydro-9H-imidazo[4″,5″:5′,6′]-benzo[1′,2′:2,3]oxocino-[4,5,6-hi]indolizine-2-carbonyl)phenyl)but-2-enamide]",7.49,15.3,
"Cc1nc2c3c(c(C(F)(F)F)cc2n1C)-c1cccn2c(C(=O)c4cc(F)c(NC(=O)C=CCNC5CCOC5)c(F)c4)nc(c12)CCN3C [Example 148, (S,E)-N-(2,6-difluoro-4-(8,9,11-trimethyl-6-(trifluoromethyl)-8,11,12,13-tetrahydro-1,2a,8,10,11-pentaazacycloocta[1,2,3-cd:5,4-e′]diindene-2-carbonyl)phenyl)-4-((tetrahydrofuran-3-yl)amino)but-2-enamide]",23.2,19.1,
"Cn1cnc2c3c(c(C(F)(F)F)cc21)-c1cccn2c(C(=O)c4cc(F)c(NC(=O)/C=C/CN5CCCC5)c(F)c4)cc(c12)CCO3 [Example 149, (E)-N-(2,6-difluoro-4-(9-methyl-7-(trifluorometh-yl)-13,14-dihydro-9H-imidazo[4″,5″:5′,6′]benzo-[1′,2′:2,3]oxocino[4,5,6-hi]indolizine-2-carbonyl)-phenyl)-4-(pyrrolidin-1-yl)but-2-enamide]",23.7,23.4,
"Cn1cnc2c3c(c(C(F)(F)F)cc21)-c1cccn2c(C(=O)c4cc(F)c(NC(=O)/C=C/CN5CC[C@H](O)C5)c(F)c4)cc(c12)CCO3 [Example 150, (S,E)-N-(2,6-difluoro-4-(9-methyl-7-(trifluoro-methyl)-13,14-dihydro-9H-imidazo[4″,5″:5′,6′]-benzo[1′,2′:2,3]oxocino-[4,5,6-hi]indolizine-2-carbonyl)phenyl)-4-(3-hydroxypyrrolidin-1-yl)-but-2-enamide]",17.1,31.2,
"Cn1cnc2c3c(c(C(F)(F)F)cc21)-c1cccn2c(C(=O)c4cc(F)c(NC(=O)/C=C/CN5CC[C@@H](O)C5)c(F)c4)cc(c12)CCO3 [Example 151, (R,E)-N-(2,6-difluoro-4-(9-methyl-7-(trifluoro-methyl)-13,14-dihydro-9H-imidazo[4″,5″:5′,6′]-benzo[1′,2′:2,3]oxocino-[4,5,6-hi]indolizine-2-carbonyl)phenyl)-4-(3-hydroxypyrrolidin-1-yl)-but-2-enamide]",15.5,33.9,
"Cn1cnc2c3c(c(C(F)(F)F)cc21)-c1cccn2c(C(=O)c4cc(F)c(NC(=O)/C=C/CN[C@@H]5[C@@H]6COC[C@@H]65)c(F)c4)cc(c12)CCO3 [Example 156, (E)-4-(((1R,5S,6s)-3-oxabicyclo[3.1.0]hexan-6-yl)amino)-N-(2,6-difluoro-4-(9-methyl-7-(trifluoromethyl)-13,14-dihydro-9H-imidazo-[4″,5″:5′,6′]benzo[1′,2′: 2,3]oxocino[4,5,6-hi]-indolizine-2-carbonyl)-phenyl)but-2-enamide]",8.06,10.3,
"CN1CCc2nc(C(=O)c3cc(F)c(NC(=O)C=CCNC4(C)COC4)c(F)c3)n3cccc(c23)-c2c(C(F)(F)F)cc3c(ncn3C)c21 [Example 157, (E)-N-(4-(8,11-dimethyl-6-(trifluoromethyl)-8,11,12,13-tetrahydro-1,2a,8,10,11-pentaaza-cycloocta[1,2,3-cd:5,4-e′]-diindene-2-carbonyl)-2,6-difluorophenyl)-4-((3-methyloxetan-3-yl)-amino)but-2-enamide]",67.6,62.1,
"COCc1nc2c3c(c(C(F)(F)F)cc2n1C)-c1cccn2c(C(=O)c4cc(F)c(NC(=O)/C=C/CN[C@H]5CCOC5)c(F)c4)cc(c12)C(=O)N(C)C3 [Example 158, (S,E)-N-(2,6-difluoro-4-(10-(methoxymethyl)-9,13-dimethyl-14-oxo-7-(trifluoromethyl)-9,12,13,14-tetrahydroimidazo[4″,5″:3′,4′]benzo[1′,2′:6,7]azocino[5,4,3-hi]indolizine-2-carbonyl)phenyl)-4-((tetrahydrofuran-3-yl)amino)but-2-enamide]",77.6,95.4,
"Cn1cnc2c3c(c(C(F)(F)F)cc21)-c1cccn2c(C(=O)c4cc(F)c(NC(=O)/C=C/CN5CCC5)c(F)c4)cc(c12)CCO3 [Example 161, (E)-4-(azetidin-1-yl)-N-(2,6-difluoro-4-(9-methyl-7-(trifluoromethyl)-13,14-dihydro-9H-imidazo-[4″,5″:5′,6′]benzo[1′,2′: 2,3]oxocino[4,5,6-hi]-indolizine-2-carbonyl)-phenyl)but-2-enamide]",63.2,21.6,
"Cn1cnc2c3c(c(C(F)(F)F)cc21)-c1cccn2c(C(=O)c4cc(F)c(NC(=O)/C=C/CN5CC[C@H]5C(C)(C)O)c(F)c4)cc(c12)CCO3 [Example 162, (S,E)-N-(2,6-difluoro-4-(9-methyl-7-(trifluoro-methyl)-13,14-dihydro-9H-imidazo[4″,5″:5′,6′]-benzo[1′,2′:2,3]oxocino-[4,5,6-hi]indolizine-2-carbonyl)phenyl)-4-(2-(2-hydroxypropan-2-yl)-azetidin-1-yl)but-2-enamide]",22.4,15.2,
"Cn1cnc2c3c(c(C(F)(F)F)cc21)-c1cccn2c(C(=O)c4cc(F)c(NC(=O)/C=C/CN5CC[C@H]5CO)c(F)c4)cc(c12)CCO3 [Example 165, (S,E)-N-(2,6-difluoro-4-(9-methyl-7-(trifluoro-methyl)-13,14-dihydro-9H-imidazo[4″,5″:5′,6′]-benzo[1′,2′:2,3]oxocino-[4,5,6-hi]indolizine-2-carbonyl)phenyl)-4-(2-(hydroxymethyl)azetidin-1-yl)but-2-enamide]",3.75,5.44,
"CN1CCc2cc(C(=O)c3cc(F)c(NC(=O)/C=C/CN[C@H]4CCOC4)c(F)c3)n3cccc(c23)-c2c(C(F)(F)F)cc3c(ncn3C3CC3)c21 [Example 166, (S,E)-N-(4-(9-cycloprop-yl-12-methyl-7-(trifluoro-methyl)-9,12,13,14-tetra-hydroimidazo[4″,5″:5′,6′]-benzo[1′,2′:2,3]azocino-[4,5,6-hi]indolizine-2-carbonyl)-2,6-difluoro-phenyl)-4-((tetrahydro-furan-3-yl)amino)but-2-enamide]",33.7,51.2,
"COC[C@@H]1CCN1C/C=C/C(=O)Nc1c(F)cc(C(=O)c2cc3c4c(cccn24)-c2c(C(F)(F)F)cc4c(ncn4C)c2OCC3)cc1F [Example 169, (S,E)-N-(2,6-difluoro-4-(9-methyl-7-(trifluoro-methyl)-13,14-dihydro-9H-imidazo[4″,5″:5′,6′]-benzo[1′,2′:2,3]oxocino-[4,5,6-hi]indolizine-2-carbonyl)phenyl)-4-(2-(methoxymethyl)azetidin-1-yl)but-2-enamide]",59.6,15,

# Reference: patent US20240262842A1, “SMALL MOLECULE INHIBITORS OF KRAS G12C MUTANT” (Merck Sharp & Dohme LLC, priority 2021, published 2024)
